Results reported in US20260069584A1, “METHODS OF TREATING CHRONIC MYELOID LEUKEMIA USING THE TYROSINE KINASE INHIBITOR VODOBATINIB” (Sun Pharma Advanced Research Company Ltd., priority 2022, published 2026).

Experiment: Part B: safety, treatment-emergent adverse events, DLT and MTD
Format: in vivo
From the text: For the purpose of the present invention, the adverse events were graded as per the National Cancer Institute's, Common Terminology Criteria for Adverse Events (NCI-CTCAE) Version 4.03 and Version 5.0 (https://evs.nci.nih.gov/ftp1/CTCAE/About.html). It is a descriptive terminology which can be utilized for Adverse Event (AE) reporting.
AEs were graded as per NCI-CTCAE Version 5.0. In the present study, along with others most common AEs for which patients were monitored were thrombocytopenia, neutropenia and anemia, any AE reported by the patient after the completion of AE collection period and considered related to the study drug was reported.
Dose Limiting Toxicity (DLT) is defined as the occurrence of any of the following unless clearly and incontrovertibly related to the underlying disease. The hematological DLTs were defined as per the Phase of CML: • a) Grade 3 or higher, or other non-hematological toxicity, including nausea, vomiting and diarrhea, and refractory to standard antiemetic therapy except alopecia and nail disorders; • b) Missed ≥25% of doses over 28 days due to toxicity in Cycle 1; and • c) Any grade of toxicity requiring dose reduction or discontinuation of IMP within the 28-days DLT assessment period (Cycle 1).
Safety Parameters: Parts B and C: Descriptive summaries were provided for the safety variables collected. Continuous variables were summarized using mean, standard deviation, minimum, median, and maximum. Categorical variables were summarized using frequency counts and percentages. For time-to-event variables, other percentiles were presented. In addition, summaries of AEs by intensity, seriousness, frequency, and relationship to IMP are presented. Adverse events (AE) s were coded using the Medical Dictionary for Regulatory Activities (MedDRA) and summarized by System Organ Class (SOC) and Preferred Term (PT).
In this study, the dose-escalation cohort started with an accelerated titration study design (ATD) and shifted to a 3±3 design when subjects in the preceding ATD cohort experienced either grade 2 or higher adverse events (AEs) or dose-limiting toxicity (DLT) during Cycle 1 that was not clearly and incontrovertibly related to the underlying disease or concomitant medications. The DLT period consisted of 28 days (Cycle 1). Subjects experiencing DLTs were managed with dose delays and/or discontinuation and continued in the study until disease progression. Decisions to advance to a succeeding dose level occurred after the evaluation of safety and tolerability data for a given dose level.
For the cohorts, where the 3±3 design applies, 3 subjects were enrolled initially. If 2 of these subjects experienced a Grade 2 or more toxicity (that was not clearly and incontrovertibly related to the underlying disease or concomitant medications), subsequent cohorts were escalated according to smaller increments. Further, if there were no DLTs in the first 3 subjects, dose escalation to the next higher dose level was allowed to proceed. If 1 of the 3 subjects experienced a DLT, that dose level was expanded to 6 subjects (3 additional subjects were enrolled). If 2 subjects at a given dose level experienced a DLT, the MTD was considered to have been exceeded. The next lower dose level was expanded to 6 subjects, or if 6 subjects had already been enrolled and no more than 1 of the 6 subjects experienced a DLT, then this lower dose level was considered the MTD. Additional subjects were enrolled in dose escalation cohorts for further assessment of safety and efficacy of the compound of Formula 1 at doses that were tolerated (i.e., doses that have <2 DLTs in 6 enrolled subjects or <1 DLT in 3 enrolled subjects). Thus 204 mg was arrived at as MTD. A subject experiencing a DLT was allowed to continue therapy with a reduced dose. Subjects who experienced a DLT and recovered were treated at the next lower dose level until disease progression or other events requiring further dose reduction existed. […]

Cc1ccc(C(=O)NNC(=O)c2c(C)cccc2Cl)cc1C#Cc1cnc2ccccc2c1 [compound of Formula I, N′-(2-chloro-6-methylbenzoyl)-4-methyl-3-[2-(3-quinolyl)ethynyl]-benzohydrazide]
5 No of pts: TEAEs: Dose discontinued and restarted, Any grade (≤2 prior TKIs (N = 18)) | Amylase increased, Any grade (≥3 prior TKIs (N = 35)) | Anemia, Grade 3/4 (≥3 prior TKIs (N = 35)) | Decreased appetite, Any grade (≥3 prior TKIs (N = 35)) | Fatigue, Any grade (≥3 prior TKIs (N = 35)) | Lipase increased, Any grade (≥3 prior TKIs (N = 35)) | Neutropenia, Grade 3/4 (≥3 prior TKIs (N = 35)) | TEAEs: Dose modifications, Grade 3/4 (≥3 prior TKIs (N = 35))
37.7%: temporary dose interruptions (of patients)
10 No of pts: SAEs, Grade 3/4 (≥3 prior TKIs (N = 35)) | TEAEs: Dose discontinued and restarted, Grade 3/4 (≥3 prior TKIs (N = 35)) | TEAEs: Dose modifications, Any grade (≥3 prior TKIs (N = 35))
204 mg: MTD (maximum tolerated dose) (oral, once daily) | highest efficacious and tolerable daily dose (patients with prior TKI exposure, mutations and ACAs)
18.8%: thrombocytopenia (grade 3 or 4)
3 No of pts: Cough, Any grade (≤2 prior TKIs (N = 18)) | Death, Any grade (≤2 prior TKIs (N = 18)) | Nasopharyngitis, Any grade (≤2 prior TKIs (N = 18)) | TEAEs Leading to drug withdrawal, Any grade (≤2 prior TKIs (N = 18)) | TEAEs Related to comp of Formula I, Grade 3/4 (≤2 prior TKIs (N = 18)) | Thrombocytopenia, Grade 3/4 (≤2 prior TKIs (N = 18)) | Nasopharyngitis, Any grade (≥3 prior TKIs (N = 35)) | TEAEs Leading to drug withdrawal, Any grade (≥3 prior TKIs (N = 35))
23 No of pts: TEAEs Related to comp of Formula I, Any grade (≥3 prior TKIs (N = 35))
15 No of pts: TEAEs: Dose discontinued and restarted, Any grade (≥3 prior TKIs (N = 35))
0 No of pts: Amylase increased, Any grade (≤2 prior TKIs (N = 18)) | Amylase increased, Grade 3/4 (≤2 prior TKIs (N = 18)) | Back pain, Grade 3/4 (≤2 prior TKIs (N = 18)) | Constipation, Grade 3/4 (≤2 prior TKIs (N = 18)) | Cough, Grade 3/4 (≤2 prior TKIs (N = 18)) | Death, Grade 3/4 (≤2 prior TKIs (N = 18)) | Decreased appetite, Grade 3/4 (≤2 prior TKIs (N = 18)) | Diarrhoea, Grade 3/4 (≤2 prior TKIs (N = 18)) | Fatigue, Grade 3/4 (≤2 prior TKIs (N = 18)) | Headache, Grade 3/4 (≤2 prior TKIs (N = 18)) | Lipase increased, Any grade (≤2 prior TKIs (N = 18)) | Lipase increased, Grade 3/4 (≤2 prior TKIs (N = 18)) | Myalgia, Grade 3/4 (≤2 prior TKIs (N = 18)) | Nasopharyngitis, Grade 3/4 (≤2 prior TKIs (N = 18)) | Nausea, Any grade (≤2 prior TKIs (N = 18)) | Nausea, Grade 3/4 (≤2 prior TKIs (N = 18)) | Pruritis, Grade 3/4 (≤2 prior TKIs (N = 18)) | Pyrexia, Grade 3/4 (≤2 prior TKIs (N = 18)) | Rhinitis, Grade 3/4 (≤2 prior TKIs (N = 18)) | TEAEs Leading to drug withdrawal, Grade 3/4 (≤2 prior TKIs (N = 18)) | Vomiting, Any grade (≤2 prior TKIs (N = 18)) | Vomiting, Grade 3/4 (≤2 prior TKIs (N = 18)) | Back pain, Grade 3/4 (≥3 prior TKIs (N = 35)) | Constipation, Grade 3/4 (≥3 prior TKIs (N = 35)) | Cough, Grade 3/4 (≥3 prior TKIs (N = 35)) | Death, Grade 3/4 (≥3 prior TKIs (N = 35)) | Decreased appetite, Grade 3/4 (≥3 prior TKIs (N = 35)) | Fatigue, Grade 3/4 (≥3 prior TKIs (N = 35)) | Headache, Grade 3/4 (≥3 prior TKIs (N = 35)) | Myalgia, Grade 3/4 (≥3 prior TKIs (N = 35)) | Nasopharyngitis, Grade 3/4 (≥3 prior TKIs (N = 35)) | Nausea, Grade 3/4 (≥3 prior TKIs (N = 35)) | Pruritis, Grade 3/4 (≥3 prior TKIs (N = 35)) | Rhinitis, Grade 3/4 (≥3 prior TKIs (N = 35)) | Vomiting, Grade 3/4 (≥3 prior TKIs (N = 35))
8 No of pts: Cough, Any grade (≥3 prior TKIs (N = 35)) | Nausea, Any grade (≥3 prior TKIs (N = 35))
11 No of pts: Diarrhoea, Any grade (≥3 prior TKIs (N = 35)) | TEAEs Related to comp of Formula I, Grade 3/4 (≥3 prior TKIs (N = 35))
96.2%: TEAEs, any grade (overall 53 patients)
12 No of pts: TEAEs Related to comp of Formula I, Any grade (≤2 prior TKIs (N = 18))
5: deaths during the study (human, in vivo)
1: deaths considered related to the compound (out of 5 deaths)
28 No of pts: All TEAEs, Grade 3/4 (≥3 prior TKIs (N = 35))
1 No of pts: Back pain, Any grade (≤2 prior TKIs (N = 18)) | Decreased appetite, Any grade (≤2 prior TKIs (N = 18)) | Diarrhoea, Any grade (≤2 prior TKIs (N = 18)) | Headache, Any grade (≤2 prior TKIs (N = 18)) | Myalgia, Any grade (≤2 prior TKIs (N = 18)) | TEAEs: Dose modifications, Any grade (≤2 prior TKIs (N = 18)) | TEAEs: Dose modifications, Grade 3/4 (≤2 prior TKIs (N = 18)) | Diarrhoea, Grade 3/4 (≥3 prior TKIs (N = 35)) | Pyrexia, Grade 3/4 (≥3 prior TKIs (N = 35))
14 No of pts: SAEs, Any grade (≥3 prior TKIs (N = 35))
4 No of pts: Amylase increased, Grade 3/4 (≥3 prior TKIs (N = 35)) | Lipase increased, Grade 3/4 (≥3 prior TKIs (N = 35)) | Pruritis, Any grade (≥3 prior TKIs (N = 35)) | Rhinitis, Any grade (≥3 prior TKIs (N = 35))
13%: anemia (grade 3 or 4)
64.1%: grade 3 or 4 TEAEs (overall 53 patients)
6 No of pts: All TEAEs, Grade 3/4 (≤2 prior TKIs (N = 18)) | SAEs, Any grade (≤2 prior TKIs (N = 18)) | Back pain, Any grade (≥3 prior TKIs (N = 35)) | Constipation, Any grade (≥3 prior TKIs (N = 35)) | Myalgia, Any grade (≥3 prior TKIs (N = 35)) | Neutropenia, Any grade (≥3 prior TKIs (N = 35)) | Pyrexia, Any grade (≥3 prior TKIs (N = 35))
9 No of pts: Anemia, Any grade (≥3 prior TKIs (N = 35))
2%: diarrhea (grade 3 or 4)
35 No of pts: All TEAEs, Any grade (≥3 prior TKIs (N = 35))
17 No of pts: Thrombocytopenia, Any grade (≥3 prior TKIs (N = 35))
20.7%: dose modification (of patients)
16 No of pts: All TEAEs, Any grade (≤2 prior TKIs (N = 18))
2 No of pts: Anemia, Any grade (≤2 prior TKIs (N = 18)) | Anemia, Grade 3/4 (≤2 prior TKIs (N = 18)) | Constipation, Any grade (≤2 prior TKIs (N = 18)) | Fatigue, Any grade (≤2 prior TKIs (N = 18)) | Neutropenia, Any grade (≤2 prior TKIs (N = 18)) | Neutropenia, Grade 3/4 (≤2 prior TKIs (N = 18)) | Pruritis, Any grade (≤2 prior TKIs (N = 18)) | Pyrexia, Any grade (≤2 prior TKIs (N = 18)) | Rhinitis, Any grade (≤2 prior TKIs (N = 18)) | SAEs, Grade 3/4 (≤2 prior TKIs (N = 18)) | TEAEs: Dose discontinued and restarted, Grade 3/4 (≤2 prior TKIs (N = 18)) | Death, Any grade (≥3 prior TKIs (N = 35)) | TEAEs Leading to drug withdrawal, Grade 3/4 (≥3 prior TKIs (N = 35))
240 mg: daily doses at which dose-limiting toxicities were present (human, in vivo, 28 days)
7 No of pts: Thrombocytopenia, Any grade (≤2 prior TKIs (N = 18)) | Headache, Any grade (≥3 prior TKIs (N = 35)) | Thrombocytopenia, Grade 3/4 (≥3 prior TKIs (N = 35)) | Vomiting, Any grade (≥3 prior TKIs (N = 35))
